According to patent US8889671B2, “Compounds and methods for treating bacterial infections” (AstraZeneca AB, priority 2013, dated 2014):
≈ marks a conversion by molar mass, not a printed value. Read-outs that look alike come from different tables or passages of the source.

Assays:
Escherichia coli = test: Susceptibility testing (MIC) Assay 2, broth microdilution; format: cell-based; settings: K12, read-out: Eco MIC
Haemophilus influenzae = test: as above; format: cell-based; settings: ATCC51907, Haemophilus influenzae, ATCC 51907, in vivo strain, read-out: Hin MIC
Klebsiella pneumoniae = test: as above; format: cell-based; settings: clinical isolate, mucoid, read-out: Kpn MIC
Pseudomonas aeruginosa = test: as above; format: cell-based; settings: PAO1, read-out: Pae MIC
[1] = target: Escherichia coli DNA gyrase A/B tetramer (Escherichia coli (strain K12), UniProt P0AES4+P0AES6); test: DNA gyrase supercoiling activity fluorescence polarisation assay; format: biochemical; settings: Eco Gyr FP Mean IC50, E. coli DNA gyrase supercoiling, 0.3 mM ATP
In short: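 IC50 derived by nonlinear regression from BODIPY-FL fluorescence anisotropy, read 60 min after quenching with labelled triplex-forming probe (pH 3.5). Reaction: 5 nM gyrase tetramer, 130 micrograms/mL relaxed plasmid, 0.3 mM ATP, 4 mM MgCl2, pH 7.5, typically 30 min at ambient temperature, 5-10 compound concentrations.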

Burkholderia cepacia = test: In vitro antibacterial activity of Example 5 (MIC); format: cell-based
Enterococcus faecalis = test: In vitro antibacterial activity of Example 5 (MIC); format: cell-based
Moraxella catarrhalis = test: In vitro antibacterial activity of Example 5 (MIC); format: cell-based; settings: ATCC43617; Moraxella catarrhalis (ATCC 43617)
Proteus vulgaris = test: In vitro antibacterial activity of Example 5 (MIC); format: cell-based
[2] = tested on: Staphylococcus haemolyticus; test: In vitro antibacterial activity of Example 5 (MIC); format: cell-based
[3] = tested on: Staphylococcus lugdunensis; test: In vitro antibacterial activity of Example 5 (MIC); format: cell-based
[4] = tested on: Streptococcus constellatus; test: In vitro antibacterial activity of Example 5 (MIC); format: cell-based
Streptococcus pneumoniae = test: In vitro antibacterial activity of Example 5 (MIC); format: cell-based
Clostridium difficile = test: In vitro antibacterial activity of Example 5 against anaerobes (MIC, agar dilution); format: cell-based; settings: Clostridioides difficile
B. cereus = test: microbe, parasite or virus in culture; format: cell-based; settings: Bacillus cereus
Staphylococcus aureus = test: S. aureus neutropenic mouse thigh infection model, PK/PD; settings: for AUC value for 1-log reduction / AUC value for stasis: ip, with ABT
[5] = tested on: Streptococcus pyogenes ATCC12384; test: S. pyogenes neutropenic mouse thigh infection model, PK/PD
[6] = S. aureus MRSA neutropenic dose response
[7] = S. aureus MRSA, neutropenic mouse thigh
[8] = S. aureus MSSA neutropenic dose response
[9] = S. aureus MSSA, neutropenic mouse thigh
[10] = S. aureus USA100, neutropenic mouse thigh
[11] = S. aureus USA100 neutropenic dose response
[12] = S. aureus USA300, neutropenic mouse thigh
[13] = S. aureus USA300 neutropenic dose response
[14] = S. pyogenes ATCC12384, neutropenic mouse thigh

C[C@@H]1CN2c3c(cc4c(N5C(=O)OC[C@@H]5C)noc4c3F)CC3(C(=O)NC(=O)NC3=O)[C@H]2[C@H](C)O1 [Example 5, (2R,4S,4aS)-11-Fluoro-2,4-dimethyl-8-[(4S)-4-methyl-2-oxo-1,3-oxazolidin-3-yl]-1,2,4,4a-tetrahydro-2′H,6H-spiro[1,4-oxazino[4,3-a][1,2]oxazolo[4,5-g]quinoline-5,5′-pyrimidine]-2′,4′,6′(1′H,3′H)-trione]
MIC (Escherichia coli): 4 µM (≈ 1.95 µg/mL) | MIC (Haemophilus influenzae): 0.33 µM (≈ 0.161 µg/mL) | MIC (Klebsiella pneumoniae): > 200 µM | MIC (Pseudomonas aeruginosa): > 200 µM | IC50 [1]: 169 nM | MIC (Burkholderia cepacia): 64 µg/mL (≈ 131 µM) | MIC range (Enterococcus faecalis; E. faecalis, n=51): 0.125 to 2 µg/mL | MIC (Enterococcus faecalis; Enterococcus faecalis): 2 µg/mL (≈ 4.1 µM) | MIC (Enterococcus faecalis; Enterococcus faecalis, ATCC29212, Enterococcus faecalis (ATCC 29212 CLSI QC Strain)): 1 µg/mL (≈ 2.05 µM) | MIC (Enterococcus faecalis; Enterococcus faecalis, Enterococcus faecalis (Vancomycin-R, fluoroquinolone-R)): 0.5 µg/mL (≈ 1.03 µM) | MIC90 (Enterococcus faecalis; Enterococcus faecalis, E. faecalis, n=51): 2 µg/mL (≈ 4.1 µM) | MIC (Moraxella catarrhalis): 0.125 µg/mL (≈ 0.256 µM) | MIC (Proteus vulgaris): 32 µg/mL (≈ 65.6 µM) | MIC [2]: 0.25 µg/mL (≈ 0.513 µM) | MIC90 ([2]; S. haemolyticus, n=21): 0.25 µg/mL (≈ 0.513 µM) | MIC [3]: 1 µg/mL (≈ 2.05 µM) | MIC90 ([3]; S. lugdunensis, n=11): 0.5 µg/mL (≈ 1.03 µM) | MIC [4]: 0.03 µg/mL (≈ 0.0615 µM) | MIC (Streptococcus pneumoniae; Streptococcus pneumonia (Penicillin, -erythromycin- and fluoroquinolone-resistant)): 0.25 µg/mL (≈ 0.513 µM) | MIC (Streptococcus pneumoniae; Streptococcus pneumoniae, ATCC49619, Streptococcus pneumonia (ATCC 49619, CLSI QC Strain), read-out: MIC): 0.25 µg/mL (≈ 0.513 µM) | MIC90 (Streptococcus pneumoniae; Streptococcus pneumoniae, 100 strains of S. pneumoniae): 0.25 µg/mL (≈ 0.513 µM) | MIC50 (Streptococcus pneumoniae; Streptococcus pneumoniae, 100 strains of S. pneumoniae, read-out: MIC50 (MICH [sic])): 0.125 µg/mL (≈ 0.256 µM) | MIC (Streptococcus pneumoniae; Streptococcus pneumoniae, Streptococcus pneumonia (In vivo Strain), read-out: MIC): 0.25 µg/mL (≈ 0.513 µM) | MIC (Clostridium difficile; ATCC70057, Clostridium difficile (ATCC 70057, CLSI QC Strain)): 0.125 µg/mL (≈ 0.256 µM) | MIC (Clostridium difficile; Clostridium difficile): 0.125 µg/mL (≈ 0.256 µM) | MIC90 (B. cereus): 0.5 µg/mL (≈ 1.03 µM) | AUC/MIC (free), 1-log reduction ± SEM (Staphylococcus aureus; [6]): 96 ± 35 | AUC/MIC (free), EC50 ± SEM (Staphylococcus aureus; [6]): 53 ± 25 | AUC/MIC (free), Stasis ± SEM (Staphylococcus aureus; [6]): 43 ± 5 | AUC value for 1-log reduction (Staphylococcus aureus; [7]): 55 μg·h/mL | AUC value for stasis (Staphylococcus aureus; [7]): 24 µg·h/mL | AUC/MIC (free), 1-log reduction ± SEM (Staphylococcus aureus; [8]): 245 ± 81 | AUC/MIC (free), EC50 ± SEM (Staphylococcus aureus; [8]): 71 ± 28 | AUC/MIC (free), Stasis ± SEM (Staphylococcus aureus; [8]): 98 ± 17 | AUC value for 1-log reduction (Staphylococcus aureus; [9]): 69 μg·h/mL | AUC value for stasis (Staphylococcus aureus; [9]): 28 µg·h/mL | AUC value for 1-log reduction (Staphylococcus aureus; [10]): 47 μg·h/mL | AUC value for stasis (Staphylococcus aureus; [10]): 25 µg·h/mL | AUC/MIC (free), 1-log reduction ± SEM (Staphylococcus aureus; [11]): 83 ± 23 | AUC/MIC (free), EC50 ± SEM (Staphylococcus aureus; [11]): 34 ± 14 | AUC/MIC (free), Stasis ± SEM (Staphylococcus aureus; [11]): 43 ± 5 | AUC value for 1-log reduction (Staphylococcus aureus; [12]): 150 μg·h/mL | AUC value for stasis (Staphylococcus aureus; [12]): 91 µg·h/mL | AUC/MIC (free), 1-log reduction ± SEM (Staphylococcus aureus; [13]): 132 ± 16 | AUC/MIC (free), EC50 ± SEM (Staphylococcus aureus; [13]): 73 ± 38 | AUC/MIC (free), Stasis ± SEM (Staphylococcus aureus; [13]): 80 ± 5 | efficacy in vivo ([5]; S. pyogenes ATC12384 in neutropenic mice): dose-dependent efficacy | AUC value for 1-log reduction [5, 14]: 76 μg·h/mL | AUC value for 2-log reduction [5, 14]: 95 μg·h/mL | AUC value for stasis [5, 14]: 60 µg·h/mL | AUC/MIC (free), EC50 ± SEM (% CV) ([5]; S. pyogenes neutropenic dose response): 151 ± 7 (5%)
